Experimental data as given in PMC6895180 (Nature Communications, 2019).
Where “and” joins values, the source holds several entries; their conditions need not be identical. Equal entries are not always repeated.

Assays:
[1] = test system: RNAi clones targeting FLA1BP, EndoG, RHS5, BCKDHA in T. brucei NY-SM cells; assay: Susceptibility of RNAi clones targeting FLA1BP, EndoG, RHS5, BCKDHA; format: cell-based, Trypanosoma brucei brucei
Protocol: Susceptibility assays with NY-SM[51], BS221[48] and TbAT1-KO[48] (derived from BS221) cells were performed using 10 concentrations of a 4-fold compound dilution series starting at 64 µM. Parasites were seeded at 4 × 10^3 parasites per well and exposed to drug compound for 72 h, after which resazurin (final concentration of 10 µg mL^−1) was added to the plates. Fluorescence intensities were determined after 6 h.
The RNAi library[54] was induced for 68 h by the addition of 1 µg mL^−1 of tetracycline. After induction, the cells were exposed to different concentrations of 9 (corresponding to the IC98, IC99). Cells were maintained until a recovery of the resistant population was observed. Genomic DNA of the resistant parasite population was isolated, and the RNAi inserts were identified by PCR amplification, followed by cloning in highly competent Escherichia coli and sequencing. To validate the involvement of the identified genes, the RNAi inserts were back-cloned into a p2T7Bern vector[54] and transformed into NY-SM cells (the background strain of the RNAi library). The transformed NY-SM cells were cloned by limiting dilution. Two clones of each RNAi insert were exposed to tetracycline to induce the RNAi phenotype and subsequently subjected to different concentrations of 9 to determine the susceptibility of induced versus non-induced clones.
Drug susceptibility assays with induced clones were performed as described above for NY-SM cells, with an initial induction period of 68 h with 1 µg mL^−1 tetracycline prior to the start of the drug susceptibility assay.
Supplementary Figure 6: Drug sensitivity of RNAi clones
Supplementary Figure 6: Drug susceptibility of RNAi clones targeting (A) FLA1BP (FLA1 binding protein), (B) EndoG (Endonuclease G), (C) RHS5 (Retrotransposon Hotspotprotein 5), (D) BCKDHA (branched chain keto acid dehydrogenase, i.e. 2-oxoisovalerate dehydrogenase). Results are expressed as the mean IC50 (µM) ± SEM and are based on two independent experiments with two biological replicates. + = tetracycline-induced clones. - = non-induced clones. All experiments were performed with two independent RNAi clones (A and B). Source data are provided as a Source Data file. […]

[2] = Metabolic stability, pooled human liver microsomes (phase I and II)
Protocol: Mouse, rat, and pooled human liver microsomes were purchased from a commercial source (Corning) and stored at -80 °C. NADPH generating system solutions A and B and UGT reaction mix solutions A and B (Corning) were kept at -20°C. The test compound and the reference compounds diclofenac (MW […]
microsomal stability assay was carried out based on the BD Biosciences Guidelines for Use (TF000017 Rev1.0) with minor adaptations. Metabolic stability of the compounds was studied through the CYP450 superfamily (phase I metabolism) by fortification with reduced nicotinamide adenine dinucleotide phosphate (NADPH) and through uridine glucuronosyl-transferase (UGT) enzymes (phase II metabolism) by fortification with uridine diphosphate glucuronic acid (UDPGA). For the CYP450 and other NADPH dependent enzymes, both compounds were incubated at 5 µM together with 0.5 mg mL-1 liver microsomes in potassium phosphate buffer in a reaction started by the addition of 1 mM NADPH […]
At these time points, 20 µL was withdrawn from the reaction mixture and 80 µL cold acetonitrile (ACN) containing the internal standard tolbutamide, was added to inactivate the enzymes and precipitate the proteins. The mixture was vortexed for 30 s and centrifuged at 4 °C for 5 min at 15,000 rpm. The supernatant was stored at -80°C until analysis. For the UGT enzymes, both compounds were incubated at 5 µM together with 0.5 mg mL-1 liver microsomes in a reaction started by the addition of 2 mM UDPGA cofactor. The corresponding loss of parent compound was determined using liquid chromatography (UPLC) (Waters AquityTM) coupled with tandem quadrupole mass spectrometry (MS²) (Waters XevoTM), equipped with an electrospray ionization (ESI) interface and operated in multiple reaction monitoring (MRM) mode. […]

Compound: Nc1ncnc2c1ccn2[C@@H]1O[C@H](CO)C[C@H]1O [Compound 9, 3’-deoxytubercidin]
- susceptibility of tetracycline-induced versus non-induced clones, remaining four constructs [1]: no significant differences
- IC50 ([1]; BCKDHA RNAi clone A +): 7.45 nM
- IC50 ([1]; BCKDHA RNAi clone A -): 7.58 nM and 7.81 nM
- IC50 ([1]; BCKDHA RNAi clone B -): 7.47 nM
- IC50 ([1]; EndoG RNAi clone A +): 7.75 nM
- IC50 ([1]; EndoG RNAi clone A -): 8.23 nM and 7.93 nM and 7.81 nM
- IC50 ([1]; EndoG RNAi clone B +): 7.63 nM and 7.94 nM and 8.26 nM
- IC50 ([1]; EndoG RNAi clone B -): 7.81 nM
- IC50 ([1]; FLA1BP RNAi clone A -): 6.66 nM
- IC50 ([1]; FLA1BP RNAi clone B +): 7.81 nM and 7.59 nM
- IC50 ([1]; FLA1BP RNAi clone B -): 7.64 nM and 7.01 nM
- IC50 ([1]; RHS5 RNAi clone A +): 8.05 nM and 7.59 nM
- IC50 ([1]; RHS5 RNAi clone A -): 7.93 nM
- IC50 ([1]; RHS5 RNAi clone B +): 8.37 nM and 7.06 nM
- IC50 ([1]; Trypanosoma brucei, BCKDHA RNAi clone A +): 7.99 nM
- IC50 ([1]; Trypanosoma brucei, BCKDHA RNAi clone A -): 7.98 nM
- IC50 ([1]; Trypanosoma brucei, BCKDHA RNAi clone B +): 8.39 nM
- IC50 ([1]; Trypanosoma brucei, BCKDHA RNAi clone B -): 7.41 nM
- IC50 ([1]; Trypanosoma brucei, EndoG RNAi clone A +): 8.04 nM
- IC50 ([1]; Trypanosoma brucei, EndoG RNAi clone A -): 8.17 nM
- IC50 ([1]; Trypanosoma brucei, EndoG RNAi clone B +): 8.04 nM
- IC50 ([1]; Trypanosoma brucei, EndoG RNAi clone B -): 7.92 nM
- IC50 ([1]; Trypanosoma brucei, FLA1BP RNAi clone A +): 8.1 nM
- IC50 ([1]; Trypanosoma brucei, FLA1BP RNAi clone A -): 7.7 nM
- IC50 ([1]; Trypanosoma brucei, FLA1BP RNAi clone B +): 8.04 nM
- IC50 ([1]; Trypanosoma brucei, FLA1BP RNAi clone B -): 7.46 nM
- IC50 ([1]; Trypanosoma brucei, RHS5 RNAi clone A +): 8.1 nM
- IC50 ([1]; Trypanosoma brucei, RHS5 RNAi clone A -): 7.87 nM
- IC50 ([1]; Trypanosoma brucei, RHS5 RNAi clone B +): 8.3 nM
- IC50 ([1]; Trypanosoma brucei, RHS5 RNAi clone B -): 7.76 nM
- % analogue 9 remaining, EXP 1 / EXP 2 ([2]; microsomes, 0 min, 5 µM): 100%
- % analogue 9 remaining, Mean ([2]; microsomes, 0 min, 5 µM): 100%
- metabolic stability ([2]; s9, 0.5 h): metabolically stable
